The test system of one data set is calf thymus DNA. The data set is described as follows: Calf-thymus DNA titration (absorption hypochroism). It is filed as binding. The method, then: FIG. 20 is a graph of the titration of MA_AuPr (1.1a) with calf-thymus DNA in aqueous pH 7 phosphate buffer at 37° C.
The hypochroism of the absorption band of the complex at 383 nm was monitored as a function of added ctDNA. […] Ka is the equilibrium binding constant in M^−1, Ct is the total Au(III) complex concentration, and s is the binding site size.

Another data set concerns human cancer cell lines. The data set is described as follows: Cytotoxicity summary (NCI-60 or independent cytotoxicity screen), Scheme 19. It is filed as cell-based.
Data set [1] deals with 60 human cancer cell lines. As to conditions: cited from earlier work; for GI50 / CC50 / IC50: mean over 60 cell lines; for CC50: read-out: LC50, 50% cell death; for IC50: read-out: TGI or IC50, total growth inhibition.
A further data set deals with HeLa cells. The data set is described as follows: HeLa cell cytotoxicity dose-response. Format: cell-based. How it is done:
FIG. 9 is a graph of the dose-response curves (HeLa cells, pH 7.0, 37° C.) for three macrocyclic Au(III) chelates. IC50 values for the complexes against HeLa cells obtained from the least squares data fits (graph) are given in the 3rd column of the table.
A summary of the average cytotoxicity data over 60 human cancer cell lines for 1.1a-1.1c and comparison with selected commercial and patented cytotoxic agents is shown in Scheme 7. […] The more abrupt the curve, the harder the dose-response function.

The target in a further data set is topoisomerase II (Homo sapiens, UniProt P11388). Kind of data set: Topoisomerase II DNA cleavage/relaxation assay, supercoiled plasmid DNA, EB gel (TopoGEN protocol). It is filed as biochemical. As to conditions: for action on topoisomerase II: compared with VP-16 (etoposide); for concentration at which topoisomerase II poisoning (DNA cleavage induction) is observed: supercoiled plasmid DNA, linear cleavage products. The method, then: The compound MA_AuPr clearly targets topoisomerase II if the statistical analysis of the NCI data for a range of drugs shown in FIG. 13 is correct. MA_AuPr was therefore assayed for its action against topoisomerase II in vitro using TopoGEN's standard protocol over a wide range of test agent concentrations (0.005 to 500 μM) in order to obtain direct experimental proof for the apparent cellular target of the compound to ensure that a fundamental understanding of the mechanism of action of this new class of Au(III) compounds exists. These experiments were performed by the company TopoGEN and at the University of Central Florida. The DNA cleavage experiments were performed in vitro using purified topoisomerase I and II enzymes and supercoiled plasmid DNA as the substrate. The controls that were used in the experiment were linear marker DNA as well as reactions without the gold(III) complex and high concentrations of VP16. The compound VP16 (etoposide) is a commercially available DNA intercalator chemotherapeutic agent, widely used in the treatment of lung and testicular cancers as well as lymphomas. The choice of VP16 as a control is based on the fact that it is a poor topoisomerase II inhibitor, but is a powerful topoisomerase II poison which arrests the enzyme's cycle at the ternary drug-enzyme-DNA cleavage complex stage, leading to observation of linear DNA fragments upon SDS denaturation of the enzyme (i.e., work-up). Comparison of the VP16 results with the results of MA_AuPr would therefore give a good indication of whether the gold(III) chelate is an inhibitor or a poison.
Lane 1 of the gel (FIG. 14) is the control experiment with only supercoiled plasmid DNA present. The control contains no topoisomerase II and so the DNA supercoiled structure cannot be relaxed, as the topoisomerase II enzyme would usually do. […] At a higher concentration of the test agent (50 μM), both supercoiled plasmid DNA and linear cleavage products are observed. […] At very high concentrations (>500 μM), MA_AuPr behaves exclusively as a catalytic inhibitor of the enzyme.
The role of gold(III) in the efficacy of the compound was determined by modifying the structure of MA_AuPr by replacing the Au(III) cation with Pd(II) to afford MA_PdPr (the isoelectronic square planar coordination complex of known structure and geometry^31) and carrying out the DNA relaxation assay with topoisomerase II as before. The metal-free ligand (MA_H2PrLig) was tested under identical conditions to confirm that the mechanism of action is related to the intact structure of the metal chelate.

In data set [2] the test system is 60 human cancer cell lines. The data set is described as follows: NCI-60 five-dose screen, mean cytotoxicity over 60 human cancer cell lines. Format: cell-based. How it is done: The gold(III) complexes of this invention were screened by the National Cancer Institute (NCI, USA) against their panel of 60 different human cancer cell lines. These screens initially entail a one-dose test for the compound at a high concentration (10 μM; e.g. FIGS. 5, 6 and 7). Compounds with a good cytotoxicity profile in the one-dose screen are then subjected to a five-dose screen for the full panel of sixty human cancer cell lines (the so-called 5-dose NCI-60 screen). In the full five-dose screen, the compound concentration is varied in five doses from 10^−8 M to 10^−4 M in order to establish a dose-response function of percentage cell growth versus the concentration of the test agent. […] Similar data will shortly be available for compounds 1.1Y^1b and 1.5Y^1a as these derivatives are in 5-dose screens currently at the NCI.
The mean cytotoxicity data summarized in Scheme 7 were compiled over 60 human cancer cell lines from the NCI database. […] The dose-response curves for the bis(pyrrolide-imine) chelates of the invention are steeper, or harder, than those of all the compounds compared in Scheme 7.

A short description of another data set: Caco-2 transport. As to conditions: human. An excerpt:
The Caco-2 data are especially important as many drugs fail due to poor membrane transport/absorption.
(In general: Caco-2 cells form a polarised layer with tight junctions and transporters.)

Data set [3] in a line: HepG2 cytotoxicity / cell health parameters. It is filed as cell-based, human. As to conditions: human. From the text:
(§1) The data for MA_AuPr in Scheme 22 are consistent with a cytotoxic compound capable of inducing apoptosis (programmed cell death) and, indeed, a compound that performs better than the control drug. […] Other cell health parameters which respond are a loss of total cells per well (indicating toxicity due to necrosis, apoptosis or a reduction in cellular proliferation), an increase in nuclear area (indicating necrosis or G2 cell cycle arrest), an increase in cytochrome c release (implying activation of a signalling cascade leading to apoptosis). The latter is particularly relevant as we may rule out cell death by necrosis in the case of MA_AuPr. The mechanism of action of the compound thus leads to cell cycle arrest in the G2 phase and the induction of apoptosis (highly desirable for an anticancer drug). […] Since the compound induces cytochrome c release, cytotoxicity involves apoptosis.

The test system of data set [4] is HepG2 human hepatocellular carcinoma cells. The data set is described as follows: HepG2 cytotoxicity / cell health parameters. Format: cell-based. As to conditions: human.
Source text: as §1

[5] abbreviates: MA series: pH 7.0 phosphate buffer at 37° C.
[6] abbreviates: comparison drugs, NCI database, 50% growth inhibition.

The values that follow come from US9346832B2, “Gold complexes for use in the treatment of cancer” (University of Kwazulu-Natal, priority 2010, dated 2016).

Where two headings read alike, the source gives them in different places.

Chain of topoisomerase II (P11388 whole entry): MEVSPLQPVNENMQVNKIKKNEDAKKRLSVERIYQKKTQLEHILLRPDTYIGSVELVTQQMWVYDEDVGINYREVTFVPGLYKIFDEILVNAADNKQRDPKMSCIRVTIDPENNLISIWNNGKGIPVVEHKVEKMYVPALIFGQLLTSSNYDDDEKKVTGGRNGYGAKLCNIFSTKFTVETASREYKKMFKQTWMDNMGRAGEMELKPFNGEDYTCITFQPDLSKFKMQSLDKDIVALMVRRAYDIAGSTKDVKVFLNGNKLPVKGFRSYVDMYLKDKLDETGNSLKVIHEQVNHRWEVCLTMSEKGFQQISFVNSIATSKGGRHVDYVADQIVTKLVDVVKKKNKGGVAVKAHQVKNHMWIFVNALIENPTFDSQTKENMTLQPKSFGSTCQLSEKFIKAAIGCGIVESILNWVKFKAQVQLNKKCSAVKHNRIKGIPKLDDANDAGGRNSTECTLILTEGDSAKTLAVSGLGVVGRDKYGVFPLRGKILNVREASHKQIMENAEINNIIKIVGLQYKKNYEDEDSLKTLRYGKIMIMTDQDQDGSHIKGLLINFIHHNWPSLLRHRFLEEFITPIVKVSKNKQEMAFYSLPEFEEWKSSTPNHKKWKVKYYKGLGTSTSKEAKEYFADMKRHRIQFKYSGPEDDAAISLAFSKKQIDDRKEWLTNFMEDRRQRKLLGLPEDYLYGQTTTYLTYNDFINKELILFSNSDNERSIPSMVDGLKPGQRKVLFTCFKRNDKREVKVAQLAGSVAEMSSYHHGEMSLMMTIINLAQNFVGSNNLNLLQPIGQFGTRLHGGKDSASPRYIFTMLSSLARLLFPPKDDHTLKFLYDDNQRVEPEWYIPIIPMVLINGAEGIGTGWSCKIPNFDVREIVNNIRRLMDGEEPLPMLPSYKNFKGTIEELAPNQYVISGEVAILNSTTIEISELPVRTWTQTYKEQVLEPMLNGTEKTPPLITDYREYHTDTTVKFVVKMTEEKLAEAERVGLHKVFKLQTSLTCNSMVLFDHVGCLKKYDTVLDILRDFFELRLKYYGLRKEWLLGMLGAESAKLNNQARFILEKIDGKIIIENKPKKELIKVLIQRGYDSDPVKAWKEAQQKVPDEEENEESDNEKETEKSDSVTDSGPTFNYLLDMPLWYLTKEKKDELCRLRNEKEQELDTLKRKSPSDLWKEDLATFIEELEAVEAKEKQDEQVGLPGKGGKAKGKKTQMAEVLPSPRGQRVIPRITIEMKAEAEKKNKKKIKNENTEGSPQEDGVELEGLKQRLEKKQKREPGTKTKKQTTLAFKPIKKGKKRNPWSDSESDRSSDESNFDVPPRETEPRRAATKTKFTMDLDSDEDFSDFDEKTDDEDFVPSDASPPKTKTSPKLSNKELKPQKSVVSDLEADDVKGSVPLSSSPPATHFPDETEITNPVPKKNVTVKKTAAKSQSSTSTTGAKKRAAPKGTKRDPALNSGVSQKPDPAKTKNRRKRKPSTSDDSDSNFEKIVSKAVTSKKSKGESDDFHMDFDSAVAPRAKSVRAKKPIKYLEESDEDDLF

As to `ClC1C[N+]2=Cc3ccc[n]3[Au-]23[n]2cccc2C=[N+]3C1.F[P-](F)(F)(F)(F)F` [MA_AuCl, 2,2′-{(2-chloropropane-1,3-diyl)bis[nitrilo(E)methylylidene]}bis(pyrrol-1-ido)gold(III) hexafluorophosphate(V)], in the data set on calf thymus DNA (setting [5]), the “Ka (calf thymus DNA)” value is listed as 3.91(7) × 10^5 M^−1. In addition, in the data set with human cancer cell lines, the Cytotoxicity entry is “active”.
Regarding `Cl.Cl.[Cl][Au-]12[n+]3ccccc3-c3cccc([n+]31)-c1cccc[n+]12` [(Au^III(terpy)Cl]Cl2], the 50% growth inhibitory concentration (GI50) (in general, the concentration giving 50% growth inhibition) in data set [1] (setting [6]) was 0.13 µM. Moreover, in data set [1] (comparison drugs, NCI database), the CC50 was 73 µM and the IC50 (as a rule, the midpoint of a concentration-inhibition curve) was 11 µM.
With `C1=[N+]2CCCC[N+]3=Cc4ccc5[n]4[Au-]23[n]2c1ccc2-c1nc2ccccc2nc1-5.F[P-](F)(F)(F)(F)F` [KA_AumacroBu, {12,13,14,15-tetrahydro-6,9:18,21-diepimino[1,6]diazacycloctadecino[12,13-b]quinoxalinato}gold(III) hexafluorophosphate(V)], the concentration for 50% growth inhibition (GI50) with HeLa cells is ~0.1 µM. Also, the 50% inhibitory concentration (IC50) in the data set with HeLa cells (pH 7.0, 37° C.) stood at 0.37 µM. For the same compound, the CC50 in the data set on HeLa cells (read-out: LC50 (the source's name)) is < 10 µM. In addition, in the data set with calf thymus DNA (KA series: pH 7.0 15% DMSO-TRIS buffer at 25° C.), the “Ka (calf thymus DNA)” value is 1.20(9) × 10^6 M^−1. The Cytotoxicity result in the data set with human cancer cell lines is on record as “active”.
Take `CO[C@@]12[C@H](COC(N)=O)C3=C(C(=O)C(C)=C(N)C3=O)N1C[C@@H]1N[C@@H]12` [Mitomycin]: the 50% growth inhibitory concentration (GI50) in data set [1] (setting [6]) is 0.71 µM. In data set [1] (comparison drugs, NCI database), the IC50 was 6.5 µM.
With `C(=NCCCN=Cc1ccc[nH]1)c1ccc[nH]1` [MA_H2PrLig], on topoisomerase II, the “action on topoisomerase II” value is listed as “inactivity” and the “concentration at which topoisomerase II poisoning (DNA cleavage induction) is observed” value came out at 500 µM.
On to `CC1(C)C[N+]2=Cc3ccc[n]3[Au-]23[n]2cccc2C=[N+]3C1.[Cl-]` [MA_AuDM, 2,2′{(2,2-dimethylpropane-1,3-diyl)bis[nitrilo(E)methyl-ylidene]}bis(pyrrol-1-ido)gold(III) chloride], for which the “fraction of cancer cell lines equivalently or more susceptible than to cisplatin” value in data set [2] (60 human cancer cell lines) is “around 12%”. Further, the CC50 in data set [2] (mean over 60 human cancer cell lines, 50% cell death, read-out: LC50 (the source's name)) turned out to be 72 µM. This compound yielded a GI50 in [2] (mean over 60 human cancer cell lines, 50% growth inhibition) of 12 µM. In addition, the TGI (concentration for total growth inhibition) in data set [2] (mean over 60 human cancer cell lines, 100% (total) growth inhibition, read-out: TGI or IC50) worked out at 31 µM. In data set [2] (plot of −log(GI50/M) versus cisplatin, FIG. 10), the “growth inhibition activity relative to cisplatin, on average” value stood at 91%. The “Ka (calf thymus DNA)” value in the data set with calf thymus DNA (setting [5]) is recorded as 1.63(3) × 10^5 M^−1. For the same compound, in the data set on human cancer cell lines, the Cytotoxicity entry is on record as “active”.
Consider `CNC(=C[N+](=O)[O-])NCCSCc1ccc(CN(C)C)o1` [Ranitidine], for which, in “Caco-2 transport”, the Papp A→B (usually how fast a substance crosses the layer from the apical side) at 2 h, 10 µM came to 0.7 ×10⁻⁶ cm/s; the Papp B→A (as a rule, the apparent permeability from the basolateral to the apical side of a cell layer) at 2 h, 10 µM stood at 2.3 ×10⁻⁶ cm/s; the efflux ratio – broadly, the permeability from basolateral to apical divided by that in the opposite direction, in the common usage – at 2 h, 10 µM was found to be 3.3.
In the case of `CC(=O)CC(c1ccccc1)c1c(O)c2ccccc2oc1=O` (stereo not drawn) [Warfarin], in the data set “Caco-2 transport” (Caco-2), the Papp A→B at 2 h, 10 µM came to 37 ×10⁻⁶ cm/s; the Papp B→A at 2 h, 10 µM stood at 8 ×10⁻⁶ cm/s; the efflux ratio at 2 h, 10 µM is 0.2.
Take `C(=NCCCN=Cc1ccc[n-]1)c1ccc[n-]1.[Pd+2]` [MA_PdPr]: at topoisomerase II (DNA-cleavage induction in presence of topoisomerase II), the “weaker effect than the gold(III) complex” value was found to be 100 fold. In addition, at topoisomerase II, the “action on topoisomerase II” value is reported as “diminished activity” and the “concentration at which topoisomerase II poisoning (DNA cleavage induction) is observed” value is 50 µM.
With `CN(C)CCCN1c2ccccc2Sc2ccc(Cl)cc21` [Chlorpromazine, reference compound], the AC50 (as a rule, the midpoint of the concentration-response curve, whichever way the signal moves) in [3] (Cell Loss AC50) is 7.8 µM; in data set [3] (Cytochrome C release AC50), 16 µM; in [3] (DNA structure AC50), 196 µM; in data set [3] (Membrane permeability AC50), 30 µM; in data set [3] (Mitochondrial mass AC50) it was 5.4 µM; in [3] (Mitochondrial membrane potential AC50), 50 µM. Further, half-maximal activity in data set [3] (Nuclear Area AC50) (AC50) was put at 100 µM. Further, in data set [4], the “Cell Loss MEC” value was 100 µM. Also, in [4], the “Cytochrome C release MEC” value was 11 µM. Also, the “DNA structure MEC” value in [4] came out at 11 µM. For the same compound, in [4], the “Mitochondrial mass MEC” value was determined as 3.7 µM. For the same compound, the “Mitochondrial membrane potential MEC” value in data set [4] was 3.7 µM. Further, the “Nuclear Area MEC” value in data set [4] is >11 µM.
As for `O=NN(CCCl)C(=O)NCCCl` [carmustine], the “mean −log(GI50)” value in [1] (selected human cancer cell lines, data not shown) is recorded as 4.20.
As for `CC[C@@]1(O)C(=O)OCc2c1cc1n(c2=O)Cc2cc3ccccc3nc2-1` [Camptothecin], in data set [2] (on average over the full 60 cell lines), the “increase in concentration from 50% growth inhibition to 50% cell kill” value is recorded as 825 fold. Also, the GI50 in data set [1] (comparison drug) is 0.04 µM. The concentration for 50% growth inhibition (GI50) in [1] (setting [6]) is 0.04 µM. Further, in data set [1] (comparison drugs, NCI database), the CC50 was 33 µM and the 50% inhibitory concentration (IC50) is 0.89 µM.
As for `CCOC1C[N+]2=Cc3ccc[n]3[Au-]23[n]2cccc2C=[N+]3C1.F[P-](F)(F)(F)(F)F` [MA_AuOEt, 2,2{(2-ethoxypropane-1,3-diyl)bis[nitrilo(E)methylylidene]}bis(pyrrol-1-ido)gold(III) hexafluorophosphate(V)], the “Ka (calf thymus DNA)” value in the data set with calf thymus DNA (setting [5]) is recorded as 1.01(4) × 10^6 M^−1. The Cytotoxicity result in the data set with human cancer cell lines was “active”.
